Values joined by “and” are separate entries in the source; they are usually repeats but may differ in a detail not shown here. Equal entries are not always repeated. e = 2'-O-(2-methoxyethyl) (MOE); k = constrained ethyl (cEt); d = 2'-deoxy (DNA)

Series [1] concerns BJAB cells. The note with it: known behaviour in the assay; cited from earlier work.
Series [2] relates to human APOE RNA. The series is described as follows: Activity in APOE C57BL/6NTac-Apoeem7250 knock-in mice, single ICV bolus, 20 weeks (Example 13). The class given is in vivo. The following applies: single ICV bolus 300 μg, 20 weeks post treatment, normalized to mouse Ppia. In a few lines:
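Knock-in mice (n=4) given a single ICV bolus of 300 μg oligonucleotide, PBS as control. After 20 weeks, human APOE RNA in cortex and spinal cord measured by RT-qPCR, normalized to mouse Ppia, expressed as % of PBS-treated animals.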

Series [3] concerns human APOE RNA. The series is described as follows: Activity in APOE C57BL/6NTac-Apoeem7250 knock-in mice, single ICV bolus, 8 weeks (Example 11). The class given is in vivo. The following applies: for reduction of human APOE RNA in the cortex: APOE knock-in mouse model, 8 weeks post administration, assay of Example 11; for APOE RNA (% control) Cortex / APOE RNA (% control) Spinal Cord: single ICV bolus 300 μg, 8 weeks post treatment, normalized to mouse Ppia. In a few lines: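 Human APOE knock-in C57BL/6NTac mice given one ICV bolus of 300 μg oligonucleotide; PBS-dosed group as control. At 8 weeks, cortex and spinal cord RNA measured by qRT-PCR (human probe RTS3073), normalized to mouse Ppia, expressed as % of PBS control.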

In series [4] the test system is BJAB cells.
Protocol: Human APOE modified oligonucleotides were tested for potential immunostimulatory properties in an in vitro human BJAB activation assay.
Human Burkitt lymphoma B cells, BJAB cells (DSMZ, Cat #ACC 757) were cultured in RPMI1640 medium containing 20% fetal bovine serum at 37° C. and 5% CO2. Cells were maintained at a density of 0.5-0.7×10^6 cells per milliliter. Cells were transferred to 50 mL conical Falcon tubes and centrifuged at 330 RCF for 5 minutes before being resuspended at a concentration of 7.5×10^4 cells per milliliter in RPMI culture medium containing penicillin and streptomycin. 50 μL of the cell suspension was added to a v-bottom tissue culture treated 96-well microplate. 11 μl of 10× concentrated modified oligonucleotides was then added to the plate for a final concentration of 1.6 μM and incubated for 24 hours at 37° C. and 5% CO2.
After a treatment period of 24 hours, total RNA was isolated from the cells and CCL22 RNA levels were measured by quantitative real-time RT-PCR. CCL22 RNA levels were measured by human primer-probe set RTS49260 (forward sequence [sequence], designated herein as SEQ ID NO: 19; reverse sequence [sequence], designated herein as SEQ ID NO: 20; probe sequence [sequence], designated herein as SEQ ID NO: 21). CCL22 RNA levels were normalized to total RNA content, as measured by GAPDH. Human GAPDH was measured using the human primer-probe set RTS104 (forward sequence [sequence], designated herein as SEQ ID NO: 10; reverse sequence [sequence], designated herein as SEQ ID NO: 11; probe sequence [sequence], designated herein as SEQ ID NO: 12). Levels of CCL22 RNA is presented log fold increase of CCL22, relative to untreated control cells (UTC). The assignment of the immunostimulatory properties of the test compounds is based on the immunostimulatory properties of the internal control compounds in each assay.
Series [5] relates to human APOE RNA. The series is described as follows: Dose-dependent inhibition of human APOE RNA in HepG2 cells, electroporation, 50,000 cells per well, RT-PCR normalized to GAPDH (Example 4, Tables 8-10). The class given is cell-based. The note with it: HepG2, electroporation, 16-hour treatment. In a few lines:
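HepG2 cells, 50,000 per well, electroporated with modified oligonucleotide at various concentrations. APOE RNA quantified by RT-PCR with human primer probe set RTS3073, normalized to GAPDH. Values are percent APOE RNA relative to untreated control cells.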

Series [6] concerns human APOE RNA. The series is described as follows: Activity in APOE 1549 knock-in mice, single ICV bolus, 2 weeks (Example 7). The class given is in vivo. The following applies: single ICV bolus of 300 μg, two weeks post treatment, Table 16. In a few lines:
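Human APOE knock-in mice (model 41549), 2 per group, given a single 300 µg ICV bolus of oligonucleotide, with PBS as control. After 2 weeks, APOE RNA in cortex and spinal cord measured by RT-qPCR, normalized to mouse Ppia, and expressed as % of PBS control.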

As for “Compound No. 104838: 5-10-5 MOE gapmer, GCTGATTAGAGAGAGGTCCC, internal standard (negative control) (sugars from the 5' end e5 d10 e5, backbone and methylation of C not given here)”, the “responder class for CCL22 release in the BJAB assay (internal standard)” value (shortened to “responder class for CCL22 release”) in the series with BJAB cells [1] was “non-responder (non-inflammatory)”.
As to “Compound No. 1517891: comparator of WO 2022/066956; ACTTGGTGAATCTTTATTAA, sugar eeeeeddddddddddeeeee, linkages sooosssssssssssooss (MOE gapmer, mixed PS/PO linkages, chemistry not fully specified) [reference compound]”, the “APOE RNA (% control) Cortex” value in the series on human APOE RNA [2] is 93 % control and 97 % control; with human APOE RNA [3], 56 % control; in the series with human APOE RNA [6] it was 49 % control. For the same substance, the “APOE RNA (% control) Spinal Cord” value was 92 % control and 71 % control in the series with human APOE RNA [2]; 29 % control in the series on human APOE RNA [3]; 65 % control in the series on human APOE RNA [6]. Also, the “reduction of human APOE RNA in the cortex” value in the series on human APOE RNA [3] worked out at 44%. Moreover, the “inflammatory response in human BJAB cells” value in the series on BJAB cells [4] is given as “mildly inflammatory”. The “APOE RNA (% UTC)” value with human APOE RNA [5] (5 nM) is listed as 82 % UTC; in the series with human APOE RNA [5] (13 nM) it was 75 % UTC; with human APOE RNA [5] (33 nM), 81 % UTC; in the series on human APOE RNA [5] (82 nM), 83 % UTC; with human APOE RNA [5] (205 nM), 65 % UTC; in the series with human APOE RNA [5] (512 nM), 48 % UTC. The “APOE RNA (% UTC)” value was 36 % UTC in the series with human APOE RNA [5] (1,280 nM), 36 % UTC in the series with human APOE RNA [5] (3,200 nM) and 17 % UTC in the series with human APOE RNA [5] (8,000 nM). The IC50 (in general, the midpoint of a concentration-inhibition curve) in the series on human APOE RNA [5] was 550 nM.
Take “Compound No. 785674: kk-9-eeekk cEt gapmer with MOE modifications, TATTTCTGCTCCAGGT, internal standard (sugars from the 5' end k2 d9 e3 k2, backbone and methylation of C not given here)”: the “responder class for CCL22 release” value in the series on BJAB cells [1] was “high responder (inflammatory)”.
In the case of “Compound No. 353512: 3-14-3 MOE gapmer, TCCCATTTCAGGAGACCTGG, internal standard (sugars from the 5' end e3 d14 e3, backbone and methylation of C not given here)”, the “responder class for CCL22 release” value in the series with BJAB cells [1] was “high responder (inflammatory)”.
As to “Compound No. 1517853: comparator of WO 2022/066956; TTGGTGAATCTTTATTAAAC, sugar eeeeeddddddddddeeeee, linkages sooosssssssssssooss (MOE gapmer, mixed PS/PO linkages, chemistry not fully specified) [reference compound]”, in the series with human APOE RNA [2], the “APOE RNA (% control) Cortex” value amounted to 99 % control and the “APOE RNA (% control) Spinal Cord” value is on record as 98 % control. Also, in the series on human APOE RNA [3], the “reduction of human APOE RNA in the cortex” value is listed as 33%, the “APOE RNA (% control) Cortex” value turned out to be 67 % control and the “APOE RNA (% control) Spinal Cord” value is listed as 50 % control. In addition, the “inflammatory response in human BJAB cells” value in the series with BJAB cells [4] is listed as “highly inflammatory”. Also, in the series with human APOE RNA [6], the “APOE RNA (% control) Cortex” value is recorded as 53 % control and the “APOE RNA (% control) Spinal Cord” value amounted to 65 % control.
For the substance “Compound No. 735746: 3-10-3 cEt gapmer, TTCAAGGTGAACTGTT, internal standard (sugars from the 5' end k3 d10 k3, backbone and methylation of C not given here)”, the “responder class for CCL22 release” value in the series on BJAB cells [1] was “moderate responder (mildly inflammatory)”.

Source of the values: US20250353873A1, “COMPOUNDS AND METHODS FOR MODULATING APOE EXPRESSION” (Ionis Pharmaceuticals, Inc., priority 2024, published 2025).
